Paper PMC9967275, “Screening the Pathogen Box to Discover and Characterize New Cruzain and TbrCatL Inhibitors” (Pathogens, 2023)

Tests used:
[1] = biological target: cruzain (Trypanosoma cruzi, UniProt P25779); assay: biochemical; conditions: for Cruzain 0’ Inhibition / Cruzain 10’ Inhibition: sheet "Screening results"
Procedure: (§1) Allison Doak and Prof. Brian Shoichet (University of California San Francisco, San Francisco, CA, USA) and Prof. Conor Caffrey (University of California San Diego, San Diego, CA, USA) generously provided recombinant cruzain and TbrCatL, respectively. In vitro activity of proteases cruzain and TbrCatL was assayed as previously described. Briefly, enzyme activity was measured by monitoring the cleavage of the fluorogenic substrate […] (Z-FR-AMC) at 25 °C. Fluorescence was monitored at 340/440 nm (excitation/emission) over 5–7 min in a Synergy2 Biotek plate reader. […] DMSO and 1 μM E-64 were employed as negative and positive controls, respectively, in all assays. Two conditions were employed for both enzymes: 10′ pre-incubation of the enzyme in the presence of the compound (10′ inc) and no pre-incubation (0′). Reported values correspond to the mean and standard error of the mean (SEM) and all analyses were performed using GraphPad Prism 6.0.
(§2) For the initial screening, compounds were assayed at 5 μM. […] IC50 curves were obtained from a non-linear fit of at least seven distinct compound concentrations, in triplicate. Reported IC50 values are the mean and SEM of two independent measurements.

[2] = biological target: T1, TbrCatL (Trypanosoma brucei rhodesiense, UniProt Q95PM0); assay: TbrCatL enzymatic inhibition assay (cleavage of fluorogenic substrate Z-FR-AMC); assay type: biochemical; conditions: for TbrCatL 0’ Inhibition / TbrCatL 10’ Inhibition: sheet "Screening results"
T1 construct: Conor Caffrey (University of California San Diego)
Procedure: as §1, §2

[3] = 0’ (no pre-incubation), sheet Screening results
[4] = 10’ (pre-incubation), sheet Screening results
[5] = 0’ (pre-incubation time), Pathogen Box screening results
[6] = 10’ (pre-incubation time), Pathogen Box screening results
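Further: at 5 µM compound concentration.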

Sequence of cruzain (P25779 123-337 limits assumed): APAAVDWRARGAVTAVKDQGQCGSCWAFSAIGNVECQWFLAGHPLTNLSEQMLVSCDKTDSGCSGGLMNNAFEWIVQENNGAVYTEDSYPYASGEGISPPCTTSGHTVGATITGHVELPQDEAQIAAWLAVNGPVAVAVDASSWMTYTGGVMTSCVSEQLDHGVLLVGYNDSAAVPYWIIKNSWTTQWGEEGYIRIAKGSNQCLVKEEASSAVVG
T1 sequence (Q95PM0 entry or part of it): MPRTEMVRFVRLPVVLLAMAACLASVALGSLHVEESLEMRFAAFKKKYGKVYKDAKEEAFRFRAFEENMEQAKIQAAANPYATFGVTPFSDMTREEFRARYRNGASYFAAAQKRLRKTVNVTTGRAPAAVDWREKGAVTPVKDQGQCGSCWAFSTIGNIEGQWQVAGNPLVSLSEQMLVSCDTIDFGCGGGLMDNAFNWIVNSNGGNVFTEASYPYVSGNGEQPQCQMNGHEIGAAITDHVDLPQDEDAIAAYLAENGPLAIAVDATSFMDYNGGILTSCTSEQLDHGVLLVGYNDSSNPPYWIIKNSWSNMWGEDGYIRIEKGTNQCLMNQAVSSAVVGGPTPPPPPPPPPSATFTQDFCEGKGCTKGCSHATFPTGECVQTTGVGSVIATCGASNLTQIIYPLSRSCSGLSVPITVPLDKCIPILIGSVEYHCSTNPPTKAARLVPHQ

Compound | Cruzain Inhibition 0’ [1, 3] [%] | Cruzain Inhibition 10’ [1, 4] [%] | TbrCatL Inhibition 0’ [2, 3] [%] | TbrCatL Inhibition 10’ [2, 4] [%] | Cruzain 0’ Inhibition ([1]; 0’ (pre-incubation time)) [%] | Cruzain 10’ Inhibition ([1]; 10’ (pre-incubation time)) [%] | TbrCatL 0’ Inhibition ([2]; 0’ (pre-incubation time)) [%] | TbrCatL 10’ Inhibition ([2]; 10’ (pre-incubation time)) [%] | other results
Cc1ccc2c(c1C)NC(=O)C21NN=C(c2ccccc2)S1 (stereo not shown) [MMV019189] | -17 | -22 | -21 | 14 |  |  |  |  | 
COc1ccc(C2CC(c3cccs3)=NN2C(=O)c2ccco2)cc1OC (stereo not shown) [MMV019234] | 6.6 | 8 | 7 | 22 |  |  |  |  | 
CCC(NC(=O)c1ccccc1NC(=O)c1ccc(C)cc1)C(=O)OC (stereo not shown) [MMV019551] |  |  |  |  | -0.5 | 1.2 | -0.4 | 3.2 | 
CCN(CC)S(=O)(=O)c1ccc(Cl)c(C(=O)Nc2ccc3nc(C)sc3c2)c1 [MMV019721] | 6.4 | 6.4 | 5 | -2.6 |  |  |  |  | 
Cc1ccc(S(=O)(=O)N2CCN(C(=O)c3cc(-c4ccccc4)n[nH]3)CC2)cc1 [MMV019742] | -5 | -3 | 3.5 | -2.5 |  |  |  |  | 
CCOc1ccccc1C(=O)Nc1cccc(-c2nc3ncccn3c2C)c1 [MMV019790] |  |  |  |  | 3.2 | 4 | 8 | -0.3 | 
Cc1ccc2cc(C3NC(=O)c4ccccc4N3)c(Cl)nc2c1 (stereo not shown) [MMV019807] | 8 | 7 | 5 | 9 |  |  |  |  | 
O=C(Nc1ccnc(-c2cccnc2)n1)c1cc(C(F)(F)F)cc(C(F)(F)F)c1 [MMV019838] | 2 | 16 | -8 | -5 |  |  |  |  | 
Cc1nn(C)cc1C(C)Nc1nncc(-c2ccc(C(F)(F)F)cc2)n1 (stereo not shown) [MMV019993] |  |  |  |  | -5 | -1.8 | 0.6 | -3.6 | 
COc1cccc(CC(=O)N2CCC(n3c(C)nc4ccc(F)cc43)CC2)c1 [MMV020081] |  |  |  |  | 5 | 10 | 1.6 | 18 | 
CC1CC1C(=O)NC1CCN(CC2(c3ccccc3)CCCCC2)CC1 (stereo not shown) [MMV020120] | 1.3 | -0.5 | -2.3 | 3.8 |  |  |  |  | 
CNC(=O)c1cc(S(=O)(=O)N2CCN(c3ccccn3)CC2)cs1 [MMV020136] | 5 | 2 | -6.4 | -5.6 |  |  |  |  | 
Cc1cc(C(=O)Nc2ccc(-c3ccccc3)cc2)no1 [MMV020152] | 3.7 | -0.4 | -2 | 1.1 |  |  |  |  | 
CC(C)NCC(=O)Nc1cccc(C(=O)Nc2cccc(C(F)(F)F)c2)c1 [MMV020165] |  |  |  |  | -1.7 | 12 | 1.8 | 5 | 
Cc1ccc(NC(=O)c2cc(S(=O)(=O)NC(C)(C)C)ccc2C)nc1 [MMV020289] |  |  |  |  | 1 | 1.9 | 1.9 | 1.3 | 
CC(C(=O)N1CCCC1)N1CCN(S(=O)(=O)c2ccc(C(C)(C)C)cc2)CC1 (stereo not shown) [MMV020291] |  |  |  |  | 2.5 | 6 | 4.3 | 8 | 
Cc1nnc(NC(=O)c2cn(-c3ccccc3)nc2-c2ccccc2C)o1 [MMV020320] | 4.5 | 2.2 | -0.2 | 4 |  |  |  |  | 
COc1ccccc1C(C)NCC(=O)Nc1cc(C(F)(F)F)ccc1Cl (stereo not shown) [MMV020321] | 0.3 | -0.8 | -9 | -10 |  |  |  |  | 
CC1CCCN(C(=O)C(C)Nc2cc(Cl)ccc2N2CCOCC2)C1 (stereo not shown) [MMV020388] | 3.4 | 4.5 | 3.3 | 0.2 |  |  |  |  | 
CC(C)C(C(=O)Nc1ccc(S(=O)(=O)N(C)C)cc1)c1ccc(Cl)cc1 (stereo not shown) [MMV020391] | -1.5 | 2 | -3.4 | -2.5 |  |  |  |  | 

Compound | Cruzain Inhibition 0’ [1, 3] [%] | Cruzain Inhibition 10’ [1, 4] [%] | TbrCatL Inhibition 0’ [2, 3] [%] | TbrCatL Inhibition 10’ [2, 4] [%] | Cruzain 0’ Inhibition ([1]; 0’ (pre-incubation time)) [%] | Cruzain 10’ Inhibition ([1]; 10’ (pre-incubation time)) [%] | TbrCatL 0’ Inhibition ([2]; 0’ (pre-incubation time)) [%] | TbrCatL 10’ Inhibition ([2]; 10’ (pre-incubation time)) [%] | other results
Cc1ccc(Oc2ccc(NC(=O)CNc3ccccc3N3CCCC3=O)cc2)cc1 [MMV020512] | 0.2 | 8 | -3.2 | -0.2 |  |  |  |  | 
COc1ccccc1CNC(=O)c1cc(C2CC2)nc2c1cnn2C(C)C [MMV020517] | 4 | 7 | 2.7 | 9 |  |  |  |  | 
Cc1cc2ccccc2n1CC(=O)N1CC(C(=O)N2CCCCC2)Oc2ccccc21 (stereo not shown) [MMV020520] | 4.7 | 3.4 | 1.6 | 10 |  |  |  |  | 
O=C(NC1CC1)c1ccc(N2CCOc3ccc(Cl)cc32)s1 [MMV020537] | 18 | 9 | 8 | 6 |  |  |  |  | 
CC(C)C(NC(=O)Cc1cccc2ccccc12)C(=O)Nc1cccc(C#N)c1 (stereo not shown) [MMV020591] | -1.7 | -0.4 | -8 | -3.7 |  |  |  |  | 
Cc1noc(C)c1C(=O)N1CCCC(c2[nH]c3c(C)cccc3c2-c2ccncc2)C1 (stereo not shown) [MMV020623] | 0.3 | 5 | -5.6 | 4 |  |  |  |  | 
COc1ccc(-c2cncc3ccc(C(=O)NCCCn4ccnc4)nc23)cc1 [MMV020670] |  |  |  |  | -2.2 | -17 | -3 | -13 | 
COc1ccc(Cl)cc1NC(=O)CN(C)C(=O)c1cnn(-c2ccccc2)n1 [MMV020710] | -11 | -36 | -10 | -99 |  |  |  |  | 
CC(C)(C)c1cc(C(=O)Nc2cccnc2)cc(C(=O)Nc2cccnc2)c1 [MMV020982] | 1.3 | -0.5 | -6 | -7 |  |  |  |  | 
c1ccc(-c2nc(NC3CCCCC3)cc(C3CC3)n2)nc1 [MMV021013] |  |  |  |  |  |  |  |  | Cruzain Inhibition 0’ [1, 5]: 9%; Cruzain Inhibition 10’ [1, 6]: 16%; TbrCatL Inhibition 0’ [2, 5]: -1.4%; TbrCatL Inhibition 10’ [2, 6]: 19%
CO/C=C(\C(=O)OC)c1ccccc1Oc1cc(Oc2ccccc2C#N)ncn1 [MMV021057] | 1.6 | 6.5 | 1.9 | 9 |  |  |  |  | 
Cc1cc(NCC(C)C)c2[nH]nc(-c3ccccc3)c2n1 [MMV021375] |  |  |  |  | 18 | 23 | 17 | 20 | 
Cc1cc(NCCc2ccccc2)nc(NC(=N)Nc2ccc(Cl)cc2)n1 [MMV021660] |  |  |  |  | 11 | 14 | -3.6 | 7 | 
CN1CCC(NCc2cccc(-c3ccc(S(=O)(=O)NCc4ccccc4)cc3)c2)CC1 [MMV022029] |  |  |  |  | -2.3 | 29 | -8 | 14 | 
CCN(CC)CCCN1CCN(C(=O)c2cccc(-c3noc(C(F)(F)F)n3)c2)CC1 [MMV022236] |  |  |  |  | 7 | 16 | 7.4 | 16 | 
O=C(Nc1ccc(N2CCNCC2)cc1)c1ccn2ncc(-c3cccc(Cl)c3)c2n1 [MMV022478] |  |  |  |  | 15 | 18 | 1.7 | 10 | 
c1ccc2c(c1)CN(CC1CC1)CC1(CCN(Cc3c[nH]c4cnccc34)CC1)O2 [MMV023183] |  |  |  |  | 3.5 | 15 | 6 | 1.8 | 
Cc1nc(-c2cccc(NCc3ccccc3)c2)[nH]c1C [MMV023227] |  |  |  |  | 2 | 15 | -7 | 22 | 
Nc1nccc2ccc(-c3ccc4nccn4c3)cc12 [MMV023233] |  |  |  |  | 11 | 8 | 0.7 | 7 | 
Nc1ncc(-c2cn[nH]c2)cc1-c1nc2cc(Cl)cnc2[nH]1 [MMV023370] |  |  |  |  | -3.5 | 8 | 3.3 | -1.5 | 
